Source: US11845742B2, “Therapeutic compounds and methods to treat infection” (priority 2017, dated 2023)
In brackets after ≈: the same amount, converted by molar mass. Read-outs that look alike come from different tables or passages of the source.

Assays:
[1] = molecular target: T1, MexAB-OprM efflux transporter (Pseudomonas aeruginosa, UniProt P52002); conditions: wild-type P. aeruginosa, background statement; cited from earlier work
T1 construct: MexAB-OprM efflux transporter present in wild-type P. aeruginosa; endogenous in cells; host or cells: wild-type P. aeruginosa
T1 sequence (P52477 24-383): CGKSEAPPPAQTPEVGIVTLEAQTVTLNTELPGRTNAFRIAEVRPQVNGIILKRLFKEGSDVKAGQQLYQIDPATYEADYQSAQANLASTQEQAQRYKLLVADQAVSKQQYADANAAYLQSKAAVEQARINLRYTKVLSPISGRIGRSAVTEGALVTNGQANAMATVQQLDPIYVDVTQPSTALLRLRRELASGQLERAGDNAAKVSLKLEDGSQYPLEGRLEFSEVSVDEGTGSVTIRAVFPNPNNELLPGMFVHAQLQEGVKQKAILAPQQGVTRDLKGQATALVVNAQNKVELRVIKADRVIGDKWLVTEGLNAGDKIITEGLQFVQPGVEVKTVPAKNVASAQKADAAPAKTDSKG
T1 sequence (P52002 whole entry): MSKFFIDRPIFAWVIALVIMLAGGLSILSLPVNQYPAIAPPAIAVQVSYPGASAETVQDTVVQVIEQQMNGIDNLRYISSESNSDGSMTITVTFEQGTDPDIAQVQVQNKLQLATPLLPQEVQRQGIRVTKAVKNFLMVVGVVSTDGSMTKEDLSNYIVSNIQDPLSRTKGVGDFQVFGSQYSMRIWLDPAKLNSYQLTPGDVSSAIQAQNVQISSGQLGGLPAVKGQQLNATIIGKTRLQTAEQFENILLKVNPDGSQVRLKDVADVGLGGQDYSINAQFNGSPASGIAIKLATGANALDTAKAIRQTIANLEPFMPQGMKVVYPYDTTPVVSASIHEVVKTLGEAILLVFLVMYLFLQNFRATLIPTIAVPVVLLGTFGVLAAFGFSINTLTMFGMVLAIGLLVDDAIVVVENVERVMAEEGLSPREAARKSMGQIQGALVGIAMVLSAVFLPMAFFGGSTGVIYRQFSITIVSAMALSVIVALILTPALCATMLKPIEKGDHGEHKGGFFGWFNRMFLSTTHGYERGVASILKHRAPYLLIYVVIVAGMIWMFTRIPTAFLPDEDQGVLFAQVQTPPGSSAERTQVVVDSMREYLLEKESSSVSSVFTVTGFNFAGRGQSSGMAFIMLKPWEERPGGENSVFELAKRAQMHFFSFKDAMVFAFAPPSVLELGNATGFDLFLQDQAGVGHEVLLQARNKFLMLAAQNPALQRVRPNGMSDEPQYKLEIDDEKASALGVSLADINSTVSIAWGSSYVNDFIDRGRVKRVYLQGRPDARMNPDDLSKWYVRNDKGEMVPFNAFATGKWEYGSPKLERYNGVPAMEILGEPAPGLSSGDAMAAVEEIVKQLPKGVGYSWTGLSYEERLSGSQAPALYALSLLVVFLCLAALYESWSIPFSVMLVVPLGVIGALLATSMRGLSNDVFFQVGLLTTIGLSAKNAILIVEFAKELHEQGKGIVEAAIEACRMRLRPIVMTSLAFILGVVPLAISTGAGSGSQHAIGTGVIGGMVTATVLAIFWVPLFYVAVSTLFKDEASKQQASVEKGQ
T1 sequence (Q51487 18-485, further chain): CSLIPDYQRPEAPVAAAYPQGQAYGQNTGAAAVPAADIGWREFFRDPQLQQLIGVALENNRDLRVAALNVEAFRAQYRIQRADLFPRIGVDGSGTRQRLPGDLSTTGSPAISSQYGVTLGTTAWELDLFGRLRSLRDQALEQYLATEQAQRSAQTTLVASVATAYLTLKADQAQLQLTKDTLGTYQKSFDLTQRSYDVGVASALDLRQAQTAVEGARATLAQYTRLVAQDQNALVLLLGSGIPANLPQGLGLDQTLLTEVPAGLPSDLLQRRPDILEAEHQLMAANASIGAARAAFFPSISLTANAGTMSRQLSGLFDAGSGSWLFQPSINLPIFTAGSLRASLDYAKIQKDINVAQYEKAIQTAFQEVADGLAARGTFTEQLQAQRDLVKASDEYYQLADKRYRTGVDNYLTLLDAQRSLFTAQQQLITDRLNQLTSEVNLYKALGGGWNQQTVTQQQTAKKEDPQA

MreB = conditions: P. aeruginosa; background statement; cited from earlier work
P. Aeruginosa PAO1 [2] = assay: Intrinsic MIC assay (broth microdilution), P. aeruginosa PAO1; type: cell-based, Pseudomonas aeruginosa; conditions: for MIC: Pseudomonas aeruginosa, read-out: Intrinsic MIC
Procedure: (§1) MIC assays were conducted in accordance with Clinical and Laboratory Standards Institute (CLSI) guidelines for broth microdilution.
(§2) The intrinsic MIC of the experimental EPIs was tested with the method described. The 2-fold serial dilution begins with 100 μg/mL of tested compound in the first column of the 96-well plates. The following Gram-negative bacterial strains were included in these assays: • Escherichia coli ATCC 25922 • Klebsiella pneumoniae ATCC 13883 and ATCC 10031 • Pseudomonas aeruginosa ATCC 27853. • Pseudomonas aeruginosa PAO1 • Acinetobacter baumannii ATCC 19606

A. baumannii ATCC 19606 = assay: Intrinsic MIC assay (broth microdilution), A. baumannii; type: cell-based, Acinetobacter baumannii; conditions: Acinetobacter baumannii
Procedure: as §1, §2

K. pneumoniae ATCC 10031 = assay: Intrinsic MIC assay (broth microdilution), K. pneumoniae; type: cell-based, Klebsiella pneumoniae; conditions: Klebsiella pneumoniae
Procedure: as §1, §2

P. Aeruginosa PAO1 [3] = assay: MIC assay in the presence of a bacterial efflux pump inhibitor (EPI), P. aeruginosa PAO1; type: cell-based, Pseudomonas aeruginosa; conditions: in the presence of 12.5 μg/ml of N-(((2S,4R)-4-(aminomethyl)pyrrolidin-2-yl)methyl)-6-(4-fluorophenyl)-1H-indole-2-carboxamide
Procedure: The ability of a compound to produce an antibiotic effect can be determined using a method as described in Example 11. Data for representative compounds used in combination with the bacterial efflux pump inhibitor (EPI) N-(((2S,4R)-4-(aminomethyl)pyrrolidin-2-yl)methyl)-6-(4-fluorophenyl)-1H-indole-2-carboxamide is shown in Table 1.
as §1
The EPI assay for the purposes of these studies represents a MIC assay in which the MIC of the antibiotic against the bacteria is tested in the presence of an experimental efflux pump inhibitor (EPI). The highest concentration of the EPI present in the assay typically is ½ of the intrinsic MIC of the compound. […] Using serial dilutions of the EPI, its enhancement of antibiotic activity was then evaluated. The relative EPI activity was decided by comparing the MIC of the antibiotic in the presence of the EPI compound with the intrinsic MIC of the antibiotic alone. For comparative purposes, we generally used EPIs at concentration of 12.5 and 6.25 μg/ml against varying concentration of our test antibiotic.

E. coli ATCC 25922 = assay: Intrinsic MIC assay (broth microdilution), E. coli; type: cell-based, Escherichia coli; conditions: Escherichia coli
Procedure: as §1, §2

[4] = 18 h, P. Aeruginosa PAO1, without EPI
[5] = ATCC19606, A. baumannii ATCC 19606, read-out: Intrinsic MIC
[6] = ATCC10031, K. pneumoniae ATCC 10031, read-out: Intrinsic MIC
[7] = ATCC25922, E. coli ATCC 25922, read-out: Intrinsic MIC
[8] = P. Aeruginosa PAO1, without EPI

Row | MIC (P. Aeruginosa PAO1 [2]; [4]) | MIC (A. baumannii ATCC 19606; [5]) | MIC (K. pneumoniae ATCC 10031; [6]) | MIC in the Presence of EPI* (P. Aeruginosa PAO1 [3]) | MIC (E. coli ATCC 25922; [7]) | Intrinsic MIC (P. Aeruginosa PAO1 [2]; [8]) | Structure (SMILES) | Efflux transporter substrate [1] | MreB inhibition (MreB) | MIC (P. Aeruginosa PAO1 [2]; PAO1, 18 h) | MIC (A. baumannii ATCC 19606; ATCC19606, read-out: Intrinsic MIC) | MIC (K. pneumoniae ATCC 10031; ATCC10031, read-out: Intrinsic MIC) | MIC (E. coli ATCC 25922; ATCC25922, read-out: Intrinsic MIC)
1 | – | – | – | – | – | – | NC1CCCc2c1[nH]c1ccc(Br)cc21 (stereo not drawn) [CBR-4830] | substrate for the MexAB-OprM efflux transporter | effective MreB inhibitor | – | – | – | –
2 | > 256 µg/mL | 64 µg/mL (≈ 262 µM) | 64 µg/mL (≈ 262 µM) | 64 µg/mL | 128 µg/mL (≈ 524 µM) | – | CC(N)c1cc2cc(OC(F)(F)F)ccc2[nH]1 (stereo not drawn) [Example 11, 1-(5-(Trifluoromethoxy)-1H-indol-2-yl)ethan-1-amine] | – | – | – | – | – | –
3 | > 256 µg/mL | 256 µg/mL (≈ 1350 µM) | > 256 µg/mL | 256 µg/mL | > 256 µg/mL | – | COc1ccc2[nH]c(C(C)N)cc2c1 (stereo not drawn) [Example 8, 1-(5-Methoxy-1H-indol-2-yl)ethan-1-amine] | – | – | – | – | – | –
4 | – | 128 µg/mL (≈ 535 µM) | 64 µg/mL (≈ 268 µM) | 8 µg/mL | 128 µg/mL (≈ 535 µM) | 128 µg/mL | CC(N)c1cc2cc(Br)ccc2[nH]1 (stereo not drawn) [Example 1, 1-(5-Bromo-1H-indol-2-yl)ethan-1-amine] | – | – | – | – | – | –
5 | > 256 µg/mL | > 256 µg/mL | > 256 µg/mL | 256 µg/mL | > 256 µg/mL | – | CC(c1cc2ccccc2[nH]1)N(C)C (stereo not drawn) [Example 12, 1-(1H-Indol-2-yl)-N,N-dimethylethan-1-amine] | – | – | – | – | – | –
6 | – | > 256 µg/mL | > 256 µg/mL | 16 µg/mL | > 256 µg/mL | 256 µg/mL | CC(N)c1cc2cc(F)ccc2[nH]1 (stereo not drawn) [Example 7, 1-(5-Fluoro-1H-indol-2-yl)ethan-1-amine] | – | – | – | – | – | –
7 | > 256 µg/mL | 16 µg/mL (≈ 33.7 µM) | 1 µg/mL (≈ 2.1 µM) | 16 µg/mL | 8 µg/mL (≈ 16.8 µM) | – | CC(NCCCNC(=O)c1cc(Cl)c(Cl)s1)c1cc2cc(Br)ccc2[nH]1 (stereo not drawn) [Example 25, N-(3-((1-(5-Bromo-1H-indol-2-yl)ethyl)amino)propyl)-4,5-dichlorothiophene-2-carboxamide] | – | – | – | – | – | –
8 | > 256 µg/mL | 64 µg/mL (≈ 140 µM) | 4 µg/mL (≈ 8.77 µM) | 16 µg/mL | 16 µg/mL (≈ 35.1 µM) | – | CC(NCCCCOc1ccc(Cl)c(Cl)c1)c1cc2cc(Br)ccc2[nH]1 (stereo not drawn) [Example 38, N-(1-(5-Bromo-1H-indol-2-yl)ethyl)-4-(3,4-dichlorophenoxy)butan-1-amine] | – | – | – | – | – | –
9 | > 256 µg/mL | 128 µg/mL (≈ 301 µM) | 16 µg/mL (≈ 37.7 µM) | 16 µg/mL | 64 µg/mL (≈ 151 µM) | – | CC(NCCCNC(=O)c1ccc(Cl)o1)c1cc2cc(Br)ccc2[nH]1 (stereo not drawn) [Example 26, N-(3-((1-(5-Bromo-1H-indol-2-yl)ethyl)amino)propyl)-5-chlorofuran-2-carboxamide] | – | – | – | – | – | –
10 | 128 µg/mL (≈ 510 µM) | 64 µg/mL (≈ 255 µM) | 32 µg/mL (≈ 127 µM) | 2 µg/mL | 32 µg/mL (≈ 127 µM) | – | NC1CCc2c1[nH]c1ccc(Br)cc21 (stereo not drawn) [Example 18, 7-Bromo-1,2,3,4-tetrahydrocyclopenta[b]indol-3-amine] | – | – | – | – | – | –
11 | 128 µg/mL (≈ 569 µM) | 64 µg/mL (≈ 284 µM) | 64 µg/mL (≈ 284 µM) | 8 µg/mL | 128 µg/mL (≈ 569 µM) | – | NCc1cc2cc(Br)ccc2[nH]1 [Example 14, (5-Bromo-1H-indol-2-yl)methanamine] | – | – | – | – | – | –

Row | Structure (SMILES) | MIC (P. Aeruginosa PAO1 [2]; [4]) | MIC (A. baumannii ATCC 19606; [5]) | MIC (K. pneumoniae ATCC 10031; [6]) | MIC in the Presence of EPI* (P. Aeruginosa PAO1 [3]) | MIC (E. coli ATCC 25922; [7]) | Intrinsic MIC (P. Aeruginosa PAO1 [2]; [8]) | Efflux transporter substrate [1] | MreB inhibition (MreB) | MIC (P. Aeruginosa PAO1 [2]; PAO1, 18 h) | MIC (A. baumannii ATCC 19606; ATCC19606, read-out: Intrinsic MIC) | MIC (K. pneumoniae ATCC 10031; ATCC10031, read-out: Intrinsic MIC) | MIC (E. coli ATCC 25922; ATCC25922, read-out: Intrinsic MIC)
12 | NC1CCCCc2c1[nH]c1cc(Cl)c(Cl)cc21 (stereo not drawn) [Example 21, 2,3-Dichloro-5,6,7,8,9,10-hexahydrocyclohepta[b]indol-6-amine hydrochloric acid] | – | – | – | 32 µg/mL | – | – | – | – | 256 µg/mL (≈ 951 µM) | 16 µg/mL (≈ 59.4 µM) | 8 µg/mL (≈ 29.7 µM) | 16 µg/mL (≈ 59.4 µM)
